From publication PMC11647725, “Discovery of 4-(5-Membered)Heteroarylether-6-methylpicolinamide Negative Allosteric Modulators of Metabotropic Glutamate Receptor Subtype 5” (ACS Medicinal Chemistry Letters, 2024)

Experiments:
human mGlu5 = target: T1, human mGlu5 (Homo sapiens, UniProt P41594); experiment: Calcium mobilization assay in human mGlu5-HEK293A cells (NAM, EC80 glutamate); format: cell-based
T1 construct: expressed in transfected cells

Opiate μ (OP3, MOP) = Opiate μ (OP3, MOP) (Homo sapiens, UniProt P35372); experiment: Lead Profiling Screen, Eurofins Panlabs; format: binding; conditions: hum, read-out: % inh at 10 μM
Chain of Opiate μ (OP3, MOP) (P35372 whole entry): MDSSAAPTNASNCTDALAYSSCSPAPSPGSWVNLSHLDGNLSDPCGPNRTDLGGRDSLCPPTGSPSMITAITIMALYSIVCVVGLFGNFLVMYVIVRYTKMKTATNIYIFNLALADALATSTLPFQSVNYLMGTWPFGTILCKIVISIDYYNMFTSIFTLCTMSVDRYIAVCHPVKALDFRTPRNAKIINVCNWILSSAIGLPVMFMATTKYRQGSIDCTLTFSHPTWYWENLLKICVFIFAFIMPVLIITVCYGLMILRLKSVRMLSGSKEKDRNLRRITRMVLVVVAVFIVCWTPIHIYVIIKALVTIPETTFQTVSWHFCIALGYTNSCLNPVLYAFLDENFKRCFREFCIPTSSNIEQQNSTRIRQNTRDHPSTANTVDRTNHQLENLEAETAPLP

[1] = Binding in plasma from rat (equilibrium dialysis); format: in vitro ADME; conditions: rat, plasma, fraction unbound; equilibrium dialysis; read-out: Rat fu,plasma
Procedure: Binding in plasma from rat and human.
Determination of compounds’ fraction unbound (f u) in plasma from rat and human was conducted in vitro via equilibrium dialysis using HTDialysis membrane plates. Dialysis membranes (four paired strips per HTD assay) were hydrated as described by the manufacturer and inserted into the HTD plate, which was assembled and prepared for sample addition by the dispensing of blank buffer (DPBS, 100 µL/well) into the ‘top half’ of each membrane-split well. Each compound was diluted into plasma from each species (5 µM final concentration), which was aliquoted in triplicate to the ‘bottom half’ of the prepared HTD plate wells. The HTD plate was sealed and incubated for 6 hours at 37 °C. Following incubation, each well (both top and bottom halves) were transferred (20 µL) to the corresponding wells of a 96-shallow-well (V-bottom) plate. The daughter plates were then matrix-matched (buffer side wells received equal volume of plasma, and plasma side wells received equal volume of buffer), and extraction solution (120 µL; acetonitrile containing 50 nM carbamazepine as IS) was added to all wells of both daughter plates to precipitate protein and extract test article. The plates were then sealed and centrifuged (3500 rcf) for 10 minutes at ambient temperature. Supernatant (60 µL) from each well of the daughter plates was then transferred to the corresponding wells of new daughter plates (96-shallow-well, V bottom) containing water (Milli-Q, 60 µL/well), and the plates were sealed in preparation for LC-MS/MS analysis (see below). fu was calculated as (analyte to IS MS peak area ratio from Trans-buffer side) / (analyte to IS MS peak area ratio from Cis-plasma side). Mean values for each species were calculated from 3 replicates. […]
(§1) Mean values for each species were calculated from 3 replicates. […]
After 5 minutes (pre-incubation), reactions were initiated by addition of nicotinamide adenine dinucleotide phosphate (NADPH, 1 mM final concentration). At selected time intervals (0, 3, 7, 15, 25, and 45 minutes) post-addition of NADPH, aliquots (50 µL) were taken and placed into a 96-shallow-well plate containing ice cold acetonitrile (150 µL) with carbamazepine (IS, 50 nM). The plates were then centrifuged (3000 rcf at 4 °C) for 10 minutes. The supernatants were transferred to a new 96-shallow-well daughter plate and diluted (1:1 v/v) with water (Milli-Q filtered). The plates were then sealed in preparation for LC-MS/MS analysis (see below).

Sigma σ1 = Sigma σ1 (Homo sapiens, UniProt Q99720); experiment: Lead Profiling Screen, Eurofins Panlabs; format: binding; conditions: Sigma σ1, hum, read-out: % inh at 10 μM
Chain of Sigma σ1 (Q99720 whole entry): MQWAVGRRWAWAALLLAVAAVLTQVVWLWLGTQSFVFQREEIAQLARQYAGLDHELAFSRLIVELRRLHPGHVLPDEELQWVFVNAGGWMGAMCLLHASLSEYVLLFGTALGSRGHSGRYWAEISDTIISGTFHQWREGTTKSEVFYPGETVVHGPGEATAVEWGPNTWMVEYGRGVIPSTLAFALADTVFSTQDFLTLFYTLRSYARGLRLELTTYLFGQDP

[2] = Binding in brain homogenate from rat (equilibrium dialysis); format: in vitro ADME; conditions: rat, brain homogenate, rat brain homogenates, read-out: Rat fu,brain
Procedure: transferred to the corresponding wells of new daughter plates (96-shallow-well, V bottom) containing water (Milli-Q, 60 µL/well), and the plates were sealed in preparation for LC-MS/MS analysis (see below). fu was calculated as (analyte to IS MS peak area ratio from Trans-buffer side) / (analyte to IS MS peak area ratio from Cis-plasma side). Mean values for each species were calculated from 3 replicates.
Binding in brain homogenate from rat.
Determination of fraction unbound (f u) in brain homogenate from rat was conducted using the same methodology and procedure than described for plasma protein binding assay with the following modifications: 1) a final compound concentration of 1 μM was used, 2) naïve rat brains were homogenized in DPBS (1:3 composition of brain: DPBS, w/w) using a Mini-Bead Beater™ machine in order to obtain […]
The diluted fraction unbound (f u2) in brain was calculated as (analyte to IS MS peak area ratio from Trans-buffer side) / (analyte to IS MS peak area ratio from Cis-brain homogenate side). Undiluted fraction unbound for the brain was calculated using the following equation: […]
as §1

Thyroid Hormone = experiment: Lead Profiling Screen, Eurofins Panlabs; format: binding; conditions: rat
[3] = Hepatocyte metabolism study; format: in vitro ADME; conditions: dog hepatocytes, more so than any other species tested
Description: Nonetheless, as a non-aryl/heterobiaryl acetylene mGlu5 NAM with an encouraging in vivo rodent PK profile, we wished to further assess VU6043653 as a novel chemotype. Therefore, we compared metabolites in multiple species to better understand species differences in clearance and metabolism. […] Consistent with the high plasma clearance observed in dogs, high turnover was observed more so in dog hepatocytes than any other species tested (see the Supporting Information for additional details and results). To further evaluate our novel chemotype, the off-target and safety/toxicity profiles for this compound were further investigated.
Table S3. Tentatively Identified Metabolites of VU6043653 in Rat, Dog, Monkey, and Human Hepatocytes (10 μM incubation for 0 and 4 hours). […]
metabolite observed with rat, dog, monkey, and human hepatocytes was M1. Overall, the major pathways for VU6043653 appear to be oxidation, demethylation, and glucuronidation.
(1 picture or pasted object on this page, not shown here)

[4] = In vivo rat pharmacokinetics; set-up: species or system Sprague–Dawley rat
Neuropeptide Y Y2 = Neuropeptide Y Y2 (Homo sapiens, UniProt P49146); experiment: Lead Profiling Screen, Eurofins Panlabs; format: binding; conditions: Neuropeptide Y Y2, hum, read-out: % inh at 10 μM
Chain of Neuropeptide Y Y2 (P49146 whole entry): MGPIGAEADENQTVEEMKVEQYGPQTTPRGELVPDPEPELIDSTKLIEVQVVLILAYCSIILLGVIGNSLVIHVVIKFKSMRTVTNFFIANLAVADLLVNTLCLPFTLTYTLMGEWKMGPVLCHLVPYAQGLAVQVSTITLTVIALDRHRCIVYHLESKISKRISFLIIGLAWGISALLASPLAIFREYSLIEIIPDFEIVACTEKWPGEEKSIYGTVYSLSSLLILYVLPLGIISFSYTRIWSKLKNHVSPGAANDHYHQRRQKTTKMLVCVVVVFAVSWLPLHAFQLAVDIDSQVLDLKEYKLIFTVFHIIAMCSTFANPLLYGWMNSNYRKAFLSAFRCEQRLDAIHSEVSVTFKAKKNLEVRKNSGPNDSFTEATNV

[5] = target: Leukotriene, Cysteinyl CysLT1 (Homo sapiens, UniProt Q9Y271); experiment: Lead Profiling Screen, Eurofins Panlabs; format: binding; conditions: Cysteinyl CysLT1, hum, read-out: % inh at 10 μM
Chain of Leukotriene, Cysteinyl CysLT1 (Q9Y271 whole entry): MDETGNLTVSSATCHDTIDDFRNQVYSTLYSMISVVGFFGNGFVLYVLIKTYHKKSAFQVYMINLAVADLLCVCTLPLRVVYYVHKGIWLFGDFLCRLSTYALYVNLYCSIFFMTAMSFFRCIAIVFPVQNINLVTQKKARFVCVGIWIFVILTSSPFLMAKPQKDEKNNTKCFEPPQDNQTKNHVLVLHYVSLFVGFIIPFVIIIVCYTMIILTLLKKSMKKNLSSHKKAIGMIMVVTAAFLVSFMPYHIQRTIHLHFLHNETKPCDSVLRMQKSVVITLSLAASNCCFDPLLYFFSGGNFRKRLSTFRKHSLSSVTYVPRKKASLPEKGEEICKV

[6] = target: Nicotinic Acetylcholine α3β4 (Homo sapiens, UniProt P30926+P32297); experiment: Lead Profiling Screen, Eurofins Panlabs; format: binding; conditions: Nicotinic Acetylcholine α3β4, hum, read-out: % inh at 10 μM
Chain of Nicotinic Acetylcholine α3β4 (P32297 32-505): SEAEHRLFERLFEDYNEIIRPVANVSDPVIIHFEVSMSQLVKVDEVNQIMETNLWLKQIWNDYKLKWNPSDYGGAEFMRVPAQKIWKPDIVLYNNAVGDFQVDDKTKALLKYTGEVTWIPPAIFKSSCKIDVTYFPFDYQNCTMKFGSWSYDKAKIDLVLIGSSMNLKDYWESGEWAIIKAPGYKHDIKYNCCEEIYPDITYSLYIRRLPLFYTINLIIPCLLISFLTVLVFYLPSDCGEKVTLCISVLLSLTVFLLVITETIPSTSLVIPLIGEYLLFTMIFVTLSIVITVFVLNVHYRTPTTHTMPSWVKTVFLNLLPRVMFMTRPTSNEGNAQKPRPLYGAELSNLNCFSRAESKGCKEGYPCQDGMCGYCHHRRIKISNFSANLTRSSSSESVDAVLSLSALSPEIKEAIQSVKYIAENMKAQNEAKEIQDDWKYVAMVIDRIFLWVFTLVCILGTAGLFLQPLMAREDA
Chain of Nicotinic Acetylcholine α3β4 (P30926 22-498): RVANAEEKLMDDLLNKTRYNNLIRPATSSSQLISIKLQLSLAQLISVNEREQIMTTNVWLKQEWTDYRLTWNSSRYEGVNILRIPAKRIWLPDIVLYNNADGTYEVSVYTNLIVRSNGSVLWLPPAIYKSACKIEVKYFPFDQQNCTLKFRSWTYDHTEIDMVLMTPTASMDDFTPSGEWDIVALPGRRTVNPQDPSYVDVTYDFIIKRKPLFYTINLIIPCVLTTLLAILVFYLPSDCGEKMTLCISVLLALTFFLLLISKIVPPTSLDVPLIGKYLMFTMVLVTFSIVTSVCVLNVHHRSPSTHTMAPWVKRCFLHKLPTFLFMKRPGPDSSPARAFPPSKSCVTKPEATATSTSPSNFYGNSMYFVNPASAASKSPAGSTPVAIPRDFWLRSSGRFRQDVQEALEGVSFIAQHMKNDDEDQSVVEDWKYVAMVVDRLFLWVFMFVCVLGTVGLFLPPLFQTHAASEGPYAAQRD

Tachykinin NK1 = Tachykinin NK1 (Homo sapiens, UniProt P25103); experiment: Lead Profiling Screen, Eurofins Panlabs; format: binding; conditions: Tachykinin NK1, hum, read-out: % inh at 10 μM
Chain of Tachykinin NK1 (P25103 whole entry): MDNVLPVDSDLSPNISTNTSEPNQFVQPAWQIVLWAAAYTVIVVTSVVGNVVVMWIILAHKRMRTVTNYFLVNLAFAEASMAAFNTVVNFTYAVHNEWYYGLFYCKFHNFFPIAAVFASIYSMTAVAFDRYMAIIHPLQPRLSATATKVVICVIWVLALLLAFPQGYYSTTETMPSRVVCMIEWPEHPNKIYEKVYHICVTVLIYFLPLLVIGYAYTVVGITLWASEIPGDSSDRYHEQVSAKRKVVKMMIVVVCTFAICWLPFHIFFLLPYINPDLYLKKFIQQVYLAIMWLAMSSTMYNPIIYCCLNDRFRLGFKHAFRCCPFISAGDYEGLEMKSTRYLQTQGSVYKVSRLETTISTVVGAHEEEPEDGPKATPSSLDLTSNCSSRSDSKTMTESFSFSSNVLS

[7] = target: Serotonin (5-Hydroxytryptamine) 5-HT3 (Homo sapiens, UniProt P46098); experiment: Lead Profiling Screen, Eurofins Panlabs; format: binding; conditions: Serotonin 5-HT3, hum, read-out: % inh at 10 μM
Chain of Serotonin (5-Hydroxytryptamine) 5-HT3 (P46098 24-478): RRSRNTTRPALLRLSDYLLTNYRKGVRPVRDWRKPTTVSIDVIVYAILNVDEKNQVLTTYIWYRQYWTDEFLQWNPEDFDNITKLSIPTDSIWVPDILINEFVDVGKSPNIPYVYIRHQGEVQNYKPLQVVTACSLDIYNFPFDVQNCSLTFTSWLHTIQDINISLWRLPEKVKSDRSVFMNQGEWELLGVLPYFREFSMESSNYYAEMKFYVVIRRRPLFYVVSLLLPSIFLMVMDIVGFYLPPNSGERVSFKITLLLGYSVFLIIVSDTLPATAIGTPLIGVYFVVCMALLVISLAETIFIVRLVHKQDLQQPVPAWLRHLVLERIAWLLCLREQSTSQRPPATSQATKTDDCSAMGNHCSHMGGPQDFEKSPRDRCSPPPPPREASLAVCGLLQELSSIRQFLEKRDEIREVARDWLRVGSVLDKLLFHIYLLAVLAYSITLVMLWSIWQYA

T1 sequence (P41594 21-1212): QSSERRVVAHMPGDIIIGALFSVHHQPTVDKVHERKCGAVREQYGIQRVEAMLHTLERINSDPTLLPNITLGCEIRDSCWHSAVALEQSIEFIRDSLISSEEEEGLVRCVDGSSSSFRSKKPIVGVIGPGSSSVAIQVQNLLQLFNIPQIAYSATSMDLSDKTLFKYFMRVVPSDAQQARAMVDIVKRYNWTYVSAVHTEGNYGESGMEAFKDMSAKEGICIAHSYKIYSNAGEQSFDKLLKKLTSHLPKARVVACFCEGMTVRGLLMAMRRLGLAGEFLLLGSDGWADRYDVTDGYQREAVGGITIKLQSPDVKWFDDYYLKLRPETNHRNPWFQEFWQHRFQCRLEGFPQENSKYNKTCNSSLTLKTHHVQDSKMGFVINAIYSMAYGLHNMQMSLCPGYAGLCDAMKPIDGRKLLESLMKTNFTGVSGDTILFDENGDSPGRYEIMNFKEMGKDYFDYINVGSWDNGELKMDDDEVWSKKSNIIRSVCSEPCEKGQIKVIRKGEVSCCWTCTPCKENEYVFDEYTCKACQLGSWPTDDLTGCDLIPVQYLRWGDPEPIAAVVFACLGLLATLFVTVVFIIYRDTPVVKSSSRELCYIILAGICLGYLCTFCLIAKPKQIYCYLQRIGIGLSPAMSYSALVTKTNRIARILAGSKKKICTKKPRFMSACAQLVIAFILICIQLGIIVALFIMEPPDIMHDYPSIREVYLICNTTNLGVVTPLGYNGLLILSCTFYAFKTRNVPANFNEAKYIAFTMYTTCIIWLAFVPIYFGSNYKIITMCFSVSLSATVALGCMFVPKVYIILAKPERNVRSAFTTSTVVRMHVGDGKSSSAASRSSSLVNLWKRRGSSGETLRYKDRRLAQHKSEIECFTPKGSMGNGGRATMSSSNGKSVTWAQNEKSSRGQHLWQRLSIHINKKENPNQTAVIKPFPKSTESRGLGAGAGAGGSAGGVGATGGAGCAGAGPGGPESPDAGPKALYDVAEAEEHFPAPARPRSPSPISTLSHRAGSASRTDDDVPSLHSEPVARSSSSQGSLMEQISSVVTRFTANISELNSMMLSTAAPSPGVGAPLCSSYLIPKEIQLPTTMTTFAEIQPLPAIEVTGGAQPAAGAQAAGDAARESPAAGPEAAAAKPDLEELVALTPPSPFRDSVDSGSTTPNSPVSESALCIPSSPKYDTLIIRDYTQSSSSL

In the case of `Cc1cc(Oc2cnn(C)c2)cc(C(=O)Nc2ccc(F)cn2)n1` [22iA], the “fold increase in hmGlu5 potency” value (human mGlu5; 22fC vs 22bC, 22gA vs 22iA, 22iA vs 22hA, 22iB vs 22hB) is reported as 1.6 fold, the “% GluMin” value (human mGlu5; efficacy of the NAM to reduce an EC80 response of glutamate, human mGlu5-HEK293A cells) is reported as 2% and the pIC50 (human mGlu5; human mGlu5-HEK293A cells, EC80 fixed concentration of glutamate, n = 2 in triplicate) is reported as 6.49. It also gave an IC50 (human mGlu5; human mGlu5-HEK293A cells, EC80 fixed concentration of glutamate, read-out: hmGlu5 IC50) of 0.325 µM, an inhibition at 10 µM (Opiate μ (OP3, MOP)) of 9% and a fraction unbound at 6 h, 5 µM [1] of 0.059. The inhibition at 10 µM (Sigma σ1) was 0%, the fraction unbound at 6 h, 1 µM [2] was 0.012 and the “% inh at 10 μM” value (Thyroid Hormone) was -2%. The turnover in hepatocytes [3] was “high turnover”, the CLp ([4]; Rat (SD), IV 1.0 mg/kg) was 41 mL/min/kg and the MRT ([4]; Rat (SD), IV 1.0 mg/kg) was 50.4 min. The Vss ([4]; Rat (SD), IV 1.0 mg/kg) was 2.0 L/kg, the t1/2 ([4]; Rat (SD), IV 1.0 mg/kg) was 44.4 min and the “AUC0-∞” value ([4]; Rat (SD), PO 10.0 mg/kg) was 1320 ng·h/mL. The Cmax ([4]; Rat (SD), PO 10.0 mg/kg) was 402 ng/mL, the Tmax ([4]; Rat (SD), PO 10.0 mg/kg) was 117 min and the “%F” value ([4]; Rat (SD), PO 10.0 mg/kg, oral bioavailability) was 43%. For the same compound, the half-life ([4]; Sprague-Dawley, rat, plasma, intravenous, 1 mg/kg, rats, value as given in running text, read-out: elimination t1/2) was ~45 min, the bioavailability ([4]; Sprague-Dawley, rat, plasma, po, 10 mg/kg) was 40% and the inhibition at 10 µM (Neuropeptide Y Y2) was -5%. It also gave an inhibition at 10 µM [5] of 7%, an inhibition at 10 µM [6] of 6% and an inhibition at 10 µM (Tachykinin NK1) of 15%. The inhibition at 10 µM [7] was -6%.
